Experimental data: PMC11167047 (Cell Death Discovery, 2024)

Tests used:
Assay in all cases: kinome screen (33PanQinase)
Format in all cases: biochemical
PKCζ = biological target: T1, PKCζ (Homo sapiens, UniProt Q05513)
T1 construct: purchased Reaction Biology Europe GmbH (formerly ProQinase)
T1 sequence (Q05513 1-592): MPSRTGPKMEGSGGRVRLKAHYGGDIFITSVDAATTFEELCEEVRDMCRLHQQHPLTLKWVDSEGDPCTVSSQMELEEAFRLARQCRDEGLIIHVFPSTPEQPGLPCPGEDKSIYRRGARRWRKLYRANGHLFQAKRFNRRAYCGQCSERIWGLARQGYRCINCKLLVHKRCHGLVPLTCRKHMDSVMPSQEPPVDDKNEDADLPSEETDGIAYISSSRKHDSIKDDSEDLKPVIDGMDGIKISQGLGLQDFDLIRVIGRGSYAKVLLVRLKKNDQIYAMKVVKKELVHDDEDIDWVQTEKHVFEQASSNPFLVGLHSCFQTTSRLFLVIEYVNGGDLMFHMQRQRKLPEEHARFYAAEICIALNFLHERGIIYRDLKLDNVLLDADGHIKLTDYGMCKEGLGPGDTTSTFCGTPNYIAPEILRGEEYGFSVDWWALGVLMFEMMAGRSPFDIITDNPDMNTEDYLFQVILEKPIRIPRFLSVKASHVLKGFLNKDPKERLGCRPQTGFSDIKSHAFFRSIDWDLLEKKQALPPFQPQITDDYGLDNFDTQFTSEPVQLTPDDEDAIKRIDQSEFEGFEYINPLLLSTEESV
Procedure: (§1) The Kinome Screening was performed by Reaction Biology Europe GmbH (http://reactionbiology.com; Freiburg i. Br., Germany).

EPHB3 = biological target: T2, EPHB3 (Homo sapiens, UniProt P54753)
T2 construct: purchased Reaction Biology Europe GmbH (formerly ProQinase)
T2 sequence (P54753 34-998): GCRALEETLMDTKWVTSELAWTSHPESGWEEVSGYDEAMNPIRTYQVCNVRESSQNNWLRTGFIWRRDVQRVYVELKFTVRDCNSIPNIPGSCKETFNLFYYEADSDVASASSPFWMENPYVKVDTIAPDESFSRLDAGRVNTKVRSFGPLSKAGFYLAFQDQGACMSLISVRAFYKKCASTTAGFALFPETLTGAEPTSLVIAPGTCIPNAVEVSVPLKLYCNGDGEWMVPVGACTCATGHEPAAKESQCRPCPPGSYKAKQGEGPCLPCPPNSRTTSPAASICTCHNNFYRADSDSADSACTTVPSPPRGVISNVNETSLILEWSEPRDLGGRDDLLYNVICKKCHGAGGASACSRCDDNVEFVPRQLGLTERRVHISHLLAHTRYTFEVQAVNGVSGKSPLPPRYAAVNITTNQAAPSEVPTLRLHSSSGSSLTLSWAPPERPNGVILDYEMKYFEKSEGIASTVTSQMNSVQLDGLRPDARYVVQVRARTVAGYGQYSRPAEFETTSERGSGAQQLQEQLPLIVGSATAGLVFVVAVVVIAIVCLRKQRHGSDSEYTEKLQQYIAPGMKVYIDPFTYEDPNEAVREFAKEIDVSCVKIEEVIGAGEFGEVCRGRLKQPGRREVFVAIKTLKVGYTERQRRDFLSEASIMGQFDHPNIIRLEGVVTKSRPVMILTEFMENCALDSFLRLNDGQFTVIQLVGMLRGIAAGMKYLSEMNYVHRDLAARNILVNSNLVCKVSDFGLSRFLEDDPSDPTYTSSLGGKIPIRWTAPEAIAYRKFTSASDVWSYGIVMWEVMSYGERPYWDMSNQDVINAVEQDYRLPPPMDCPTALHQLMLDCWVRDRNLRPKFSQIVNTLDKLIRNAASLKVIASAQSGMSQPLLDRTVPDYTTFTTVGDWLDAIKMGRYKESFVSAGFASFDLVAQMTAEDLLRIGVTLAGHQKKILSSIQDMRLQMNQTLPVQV
Procedure: as §1

CAMKK2 = biological target: T3, CAMKK2 (Homo sapiens, UniProt Q96RR4)
T3 construct: purchased Reaction Biology Europe GmbH (formerly ProQinase)
Procedure: as §1

RIPK4 = biological target: T4, RIPK4 (Homo sapiens, UniProt P57078)
T4 construct: purchased Reaction Biology Europe GmbH (formerly ProQinase)
T4 sequence (P57078 1-832): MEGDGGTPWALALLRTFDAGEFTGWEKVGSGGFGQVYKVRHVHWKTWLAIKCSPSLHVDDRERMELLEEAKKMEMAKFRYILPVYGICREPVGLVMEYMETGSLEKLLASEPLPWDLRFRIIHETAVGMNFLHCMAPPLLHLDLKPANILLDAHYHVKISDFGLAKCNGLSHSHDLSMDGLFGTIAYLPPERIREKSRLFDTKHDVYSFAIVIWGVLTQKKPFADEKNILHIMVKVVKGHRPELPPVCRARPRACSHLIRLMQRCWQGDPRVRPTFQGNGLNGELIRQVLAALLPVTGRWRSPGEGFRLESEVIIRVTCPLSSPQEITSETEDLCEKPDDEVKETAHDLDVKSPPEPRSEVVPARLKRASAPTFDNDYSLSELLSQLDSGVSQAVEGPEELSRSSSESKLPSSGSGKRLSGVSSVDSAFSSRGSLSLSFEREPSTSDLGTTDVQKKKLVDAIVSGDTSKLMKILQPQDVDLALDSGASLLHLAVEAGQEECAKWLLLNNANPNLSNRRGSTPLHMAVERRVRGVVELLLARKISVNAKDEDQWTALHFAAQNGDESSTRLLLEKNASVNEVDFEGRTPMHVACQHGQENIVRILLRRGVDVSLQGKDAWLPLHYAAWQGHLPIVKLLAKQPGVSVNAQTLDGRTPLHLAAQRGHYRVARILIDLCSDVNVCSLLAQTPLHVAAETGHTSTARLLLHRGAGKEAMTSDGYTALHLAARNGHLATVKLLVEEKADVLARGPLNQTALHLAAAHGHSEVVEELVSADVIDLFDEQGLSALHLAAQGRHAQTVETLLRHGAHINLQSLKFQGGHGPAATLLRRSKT
Procedure: as §1

T3 sequence (Q96RR4 whole entry): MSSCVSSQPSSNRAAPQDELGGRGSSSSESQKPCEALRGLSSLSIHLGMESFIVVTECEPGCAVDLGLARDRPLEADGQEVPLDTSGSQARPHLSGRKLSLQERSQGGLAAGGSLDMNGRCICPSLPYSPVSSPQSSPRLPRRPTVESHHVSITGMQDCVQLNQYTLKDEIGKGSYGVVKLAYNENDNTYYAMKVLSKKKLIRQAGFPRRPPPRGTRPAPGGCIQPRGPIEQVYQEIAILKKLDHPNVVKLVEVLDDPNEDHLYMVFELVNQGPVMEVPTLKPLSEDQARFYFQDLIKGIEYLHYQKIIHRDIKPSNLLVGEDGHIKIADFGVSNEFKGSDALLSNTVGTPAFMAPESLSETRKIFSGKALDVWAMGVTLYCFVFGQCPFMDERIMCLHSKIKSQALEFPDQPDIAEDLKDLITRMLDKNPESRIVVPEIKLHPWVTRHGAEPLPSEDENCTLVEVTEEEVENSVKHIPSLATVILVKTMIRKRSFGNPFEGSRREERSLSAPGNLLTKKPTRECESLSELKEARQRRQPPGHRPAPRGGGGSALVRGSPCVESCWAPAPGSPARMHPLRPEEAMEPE

SMILES	residual kinase activity (PKCζ; 0.03 µM)	residual kinase activity (PKCζ; 0.3 µM)	residual kinase activity (EPHB3; 0.03 µM)	residual kinase activity (EPHB3; 0.3 µM)	residual kinase activity (CAMKK2; 0.03 µM)	residual kinase activity (CAMKK2; 0.3 µM)	residual kinase activity (RIPK4; 0.03 µM)	residual kinase activity (RIPK4; 0.3 µM)	residual kinase activity (PKCζ; 3 µM)	residual kinase activity (EPHB3; 3 µM)	residual kinase activity (CAMKK2; 3 µM)	residual kinase activity (RIPK4; 3 µM)
COc1ccnc2[nH]cc(-c3cc(N)nc(N)c3)c12 [meriolin 16]	97 % of control	78 % of control	101 % of control	99 % of control	92 % of control	55 % of control	94 % of control	75 % of control				
c1ccc(CNc2cc(-c3c[nH]c4ncccc34)ccn2)cc1 [meriolin 36]		85 % of control		91 % of control		9 % of control		88 % of control	29 % of control	67 % of control	1 % of control	45 % of control
